Data set [1] is described as follows: Observation of samples for solubility/precipitation in water (Example 9). The class given is physicochemical. As to conditions: for time over which a soluble solution was promoted: 0.3% steviol glycoside mixture, 5:1 molar ratio of acid to steviol glycoside.
The conditions of data set [2]: sensory evaluation; cited from earlier work.
The format of data set [3] is physicochemical. The source says:
The composition can optionally be expressed in terms of the concentration of one or more steviol glycoside(s). […] Clear solutions without precipitates are considered soluble. Unless indicated otherwise herein, the term “solubility” refers to “equilibrium solubility.”

On to `O=C(O)c1cc(O)c(O)c(O)c1` [Gallic acid], for which the “colour imparted to the sample solutions” value in data set [1] (more apparent at higher concentrations, observed after about 3 days) is “brownish tinge”.

Turning to `O=C(O)C(O)c1ccccc1` (centres unmarked) [Mandelic acid], the “time over which a soluble solution was promoted” value in data set [1] is 3 days.

Consider `O=C(O)c1cc(C(=O)O)c(C(=O)O)cc1C(=O)O` [Pyromellitic acid], for which the “time over which a soluble solution was promoted” value in data set [1] came to 3 days.

Consider `C=C1C[C@@]23CC[C@H]4[C@@](C)(CCC[C@@]4(C)C(=O)O[C@@H]4O[C@H](CO)[C@@H](O)[C@H](O)[C@H]4O[C@@H]4O[C@H](CO)[C@@H](O)[C@H](O)[C@H]4O)[C@@H]2CC[C@]1(O[C@@H]1O[C@H](CO)[C@@H](O)[C@H](O[C@@H]2O[C@H](CO)[C@@H](O)[C@H](O)[C@H]2O)[C@H]1O[C@@H]1O[C@H](CO)[C@@H](O)[C@H](O)[C@H]1O)C3` [Rebaudioside D, rebaudioside D], for which the “times sweeter than sucrose” value in data set [2] is reported as 200-220 times. For the same molecule, in data set [3], the equilibrium solubility worked out at 0.08% and the instantaneous solubility result is recorded as “less than 0.08%”.

`C=C1C[C@@]23CC[C@H]4[C@@](C)(CCC[C@@]4(C)C(=O)O[C@@H]4O[C@H](CO)[C@@H](O)[C@H](O[C@@H]5O[C@H](CO)[C@@H](O)[C@H](O)[C@H]5O)[C@H]4O[C@@H]4O[C@H](CO)[C@@H](O)[C@H](O)[C@H]4O)[C@@H]2CC[C@]1(O[C@@H]1O[C@H](CO)[C@@H](O)[C@H](O[C@@H]2O[C@H](CO)[C@@H](O)[C@H](O)[C@H]2O)[C@H]1O[C@@H]1O[C@H](CO)[C@@H](O)[C@H](O)[C@H]1O)C3` [Rebaudioside M, rebaudioside M]: in data set [3], the equilibrium solubility entry is on record as “about 0.2%” and the instantaneous solubility entry is “about 0.13%”.

These data come from patent US20240315297A1, “STEVIOL GLYSOCIDE SOLUBILITY ENHANCERS” (CARGILL, INCORPORATED, priority 2017, published 2024).
